The supplement of paper PMC10307832

Tests used:
Experiment in all cases: relative viability (nuclei count vs DMSO), 5 days (fraction); higher = more cells survive
Tanzisertib + Navitoclax = compound: O[C@H]1CC[C@H](Nc2ncc3nc(Nc4c(F)cc(F)cc4F)n([C@H]4CCOC4)c3n2)CC1 [Tanzisertib] + CC1(C)CCC(c2ccc(Cl)cc2)=C(CN2CCN(c3ccc(C(=O)NS(=O)(=O)c4ccc(N[C@H](CCN5CCOCC5)CSc5ccccc5)c(S(=O)(=O)C(F)(F)F)c4)cc3)CC2)C1 [Navitoclax] (partner 0.5 µM)
Method in brief: (§1)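 Values are medians from duplicate plates. Each reflects relative viability, defined as the nuclei count of treated wells over that of vehicle wells. Lung cancer cell lines in 1536-well plates were pin-tool dosed one day after seeding with one drug alone or with a fixed anchor-drug dose plus five library-drug doses (not always all listed) in √10 steps, then fixed, stained and imaged at 4× after 5 days.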

Tanzisertib + Linsitinib = compound: O[C@H]1CC[C@H](Nc2ncc3nc(Nc4c(F)cc(F)cc4F)n([C@H]4CCOC4)c3n2)CC1 [Tanzisertib] + C[C@]1(O)C[C@@H](c2nc(-c3ccc4ccc(-c5ccccc5)nc4c3)c3c(N)nccn32)C1 [Linsitinib] (partner 1 µM)
Method in brief: as §1

[1] = compound: C1CNCCC1C2=CC(=NN2)C3=CC=NC=C3 + CS(=O)(=O)N1CCN(Cc2cc3nc(-c4cccc5[nH]ncc45)nc(N4CCOCC4)c3s2)CC1 [Pictilisib] (partner 1 µM)
Method in brief: as §1

[2] = compound: C1CNCCC1C2=CC(=NN2)C3=CC=NC=C3 + CC(=O)c1c(C)c2cnc(Nc3ccc(N4CCNCC4)cn3)nc2n(C2CCCC2)c1=O [Palbociclib] (partner 0.5 µM)
Method in brief: as §1

Cell Line	relative viability (Tanzisertib + Navitoclax; first compound 0.08 µM)	relative viability (Tanzisertib + Navitoclax; first compound 0.253 µM)	relative viability (Tanzisertib + Navitoclax; first compound 0.8 µM)	relative viability (Tanzisertib + Navitoclax; first compound 2.53 µM)	relative viability (Tanzisertib + Navitoclax; first compound 8 µM)	relative viability (Tanzisertib + Linsitinib; first compound 0.08 µM)	relative viability (Tanzisertib + Linsitinib; first compound 0.253 µM)	relative viability (Tanzisertib + Linsitinib; first compound 0.8 µM)	relative viability (Tanzisertib + Linsitinib; first compound 2.53 µM)	relative viability (Tanzisertib + Linsitinib; first compound 8 µM)	relative viability ([1]; first compound 0.08 µM)	relative viability ([1]; first compound 0.8 µM)	relative viability ([1]; first compound 2.53 µM)	relative viability ([1]; first compound 8 µM)	relative viability ([2]; first compound 0.08 µM)	relative viability ([2]; first compound 0.8 µM)	relative viability ([2]; first compound 2.53 µM)	relative viability ([2]; first compound 8 µM)
EMC-BAC-2	1.23	1.16	1.18	1.12	1.07	0.825	0.806	0.825	0.743	0.771	0.449	0.613	0.544	0.517	0.435	0.513	0.531	0.523
NCI-H647	1.11	1.18	1.22	1.3	0.943	1.17	1.29	1.12	1.24	1.3	0.388		0.427	0.381	0.354	0.387	0.49	0.458
LXF-289	1.05	0.917	1	0.962	1.03	1.04	0.916	1.04	0.995	1.04	0.776	0.845	0.823	0.829	0.599	0.644	0.646	0.58
LOU-NH91	0.81	0.664	0.747	0.675	0.497	0.996	0.906	0.996	0.842	0.627	0.545	0.521	0.522	0.49	0.539	0.539	0.545	0.589
NCI-H23	0.964	0.75	0.912	0.86	0.819	0.614	0.497	0.535	0.627	0.638	0.447	0.533	0.648	0.601	0.444		0.602	0.647
NCI-H1993	1.08	0.909	0.947	0.924	0.803	0.759	0.681	0.754	0.768	0.677	0.802	0.806	0.933	0.623	0.704	0.737	0.698	0.738
HCC-827	0.961	1.01	1.11	1	0.742	0.919	0.915	0.907	0.954	0.746	0.981	0.918	0.919	0.891	0.498	0.437	0.534	0.499
CAL-12T	1.21	1.18	1.37	1.37	1.34	0.896	0.769	0.882	0.977	0.817	0.619	0.549	0.481	0.616	0.535	0.0415	0.566	0.572
NCI-H838	1.18	1.15	1.26	1.18	1.12	1.02	0.997	1	1.01	0.919	0.439	0.491	0.471	0.461	0.225	0.194	0.249	0.247
